Test results as given in paper PMC10285950 (ACS Omega, 2023).
Several values for one entry are separate records, joined by “and”; a condition that tells them apart may be missing. Equal values may be shown once.

What was measured:
[1] = target: T1, 5-HT1AR (HEK-h5HT1A membranes) (Homo sapiens, UniProt P08908); assay: HEK-5HT1A [35S]GTPγS binding functional assay; format: biochemical; settings: for 5-HT1AR [35S]GTPγS assay % max ± SEM: maximal effect normalized to maximal effect of serotonin; for functional character at 5-HT1AR ([35S]GTPγS assay): result in words
T1 sequence (P08908 1-422): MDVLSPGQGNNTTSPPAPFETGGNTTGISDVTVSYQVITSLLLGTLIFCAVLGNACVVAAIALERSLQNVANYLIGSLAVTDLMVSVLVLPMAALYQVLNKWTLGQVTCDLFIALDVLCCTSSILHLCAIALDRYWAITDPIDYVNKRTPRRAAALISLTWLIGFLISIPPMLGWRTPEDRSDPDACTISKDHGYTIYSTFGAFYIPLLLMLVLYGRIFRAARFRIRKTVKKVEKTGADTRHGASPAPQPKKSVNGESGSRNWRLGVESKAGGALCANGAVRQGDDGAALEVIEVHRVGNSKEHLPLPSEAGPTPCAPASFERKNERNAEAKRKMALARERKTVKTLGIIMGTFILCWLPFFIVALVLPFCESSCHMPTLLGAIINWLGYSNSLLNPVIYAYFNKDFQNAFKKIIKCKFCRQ

h5HT7A receptor = h5HT7A receptor (Homo sapiens, UniProt P34969); assay: [3H]5-HT binding at 5HT7A receptors; settings: HEK cells transiently transfected with h5HT7A
5-HT7AR [2] = target: T2, 5-HT7AR (Homo sapiens, UniProt P34969); assay: HEK-5HT7A/cAMP; format: cell-based
5-HT7AR [3] = target: T2, 5-HT7AR; assay: HEK-5HT7A/cAMP; format: cell-based; remark: listed apart in the source
human 5HT1A receptor = target: T3, human 5HT1A receptor (Homo sapiens, UniProt P08908); assay: [3H]8-OH-DPAT binding at the 5-HT1A receptor; settings: HEK-h5HT1A membranes
T3 sequence (P08908 1-422): T1 sequence (P08908 1-422)

T2 sequence (P34969 1-445 isoform P34969-2): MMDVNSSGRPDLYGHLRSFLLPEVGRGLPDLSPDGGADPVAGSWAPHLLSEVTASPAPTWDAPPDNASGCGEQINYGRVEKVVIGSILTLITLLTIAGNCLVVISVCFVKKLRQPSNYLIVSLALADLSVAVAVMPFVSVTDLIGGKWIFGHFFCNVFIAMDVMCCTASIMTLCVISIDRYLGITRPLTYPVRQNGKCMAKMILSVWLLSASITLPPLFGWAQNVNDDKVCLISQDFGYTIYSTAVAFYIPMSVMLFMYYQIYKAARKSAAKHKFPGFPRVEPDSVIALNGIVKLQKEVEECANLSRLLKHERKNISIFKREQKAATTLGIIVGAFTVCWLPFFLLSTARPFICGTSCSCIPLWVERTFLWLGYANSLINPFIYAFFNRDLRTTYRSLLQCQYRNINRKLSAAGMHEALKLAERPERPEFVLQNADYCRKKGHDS
h5HT7A receptor, sequence (P34969 1-445 isoform P34969-2): as above

CC1(CCCN2CCN(c3ccccn3)CC2)Cc2cc(Cl)ccc2C1=O (racemic) [SYA0340, 5-chloro-2-methyl-2-(3-(4-(pyridin-2-yl)piperazin-1-yl)propyl)-2,3-dihydro-1H-inden-1-one]
5-HT1AR [35S]GTPγS assay % max ± SEM [1]: 101.5% and 101.5 ± 2.8% | functional character at 5-HT1AR ([35S]GTPγS assay) [1]: full agonist | 5-HT7AR [3H]5-HT binding hill slope ± SEM (h5HT7A receptor): –0.59 ± 0.03 | 5-HT7AR adenylate cyclase % max inhib. ± SEM (5-HT7AR [2]; maximal inhibition of cAMP formation defined with 10 μM lurasidone): 94.7 ± 4.1% | agonist activity at 5-HT7AR (5-HT7AR [3]; result in words): do not show any agonist activity | 5-HT1AR [3H]8-OH-DPAT binding hill slope ± SEM (human 5HT1A receptor): –0.66 ± 0.09

NCCc1c[nH]c2ccc(O)cc12 [5-HT, serotonin]
5-HT1AR [35S]GTPγS assay % max ± SEM [1]: 101.2 ± 1.1% | 5-HT1AR [35S]GTPγS assay % max ± SEM ([1]; listed as serotonin (5-HT)): 101.2% | functional character at 5-HT1AR ([35S]GTPγS assay) [1]: full agonist | 5-HT7AR [3H]5-HT binding hill slope ± SEM (h5HT7A receptor): –1.07 ± 0.09 | 5-HT7AR adenylate cyclase % max ± SEM (5-HT7AR [3]; agonist effect, normalized to maximal serotonin effect): 95.8% and 95.8 ± 1.6% | 5-HT1AR [3H]8-OH-DPAT binding hill slope ± SEM (human 5HT1A receptor): –0.96 ± 0.06

O=C1[C@@H]2[C@H]3CC[C@H](C3)[C@@H]2C(=O)N1C[C@@H]1CCCC[C@H]1CN1CCN(c2nsc3ccccc23)CC1 [lurasidone]
5-HT7AR [3H]5-HT binding hill slope ± SEM (h5HT7A receptor): –0.76 ± 0.11 | inhibition (5-HT7AR [2]; read-out: 5-HT7AR adenylate cyclase % max inhib. ± SEM): 98 ± 2%
